Experimental data as given in patent publication US12351581B2, “Compounds for FGFR inhibition” (Cogent Biosciences, Inc., priority 2023, dated 2025).
Read-outs that look alike come from different tables or passages of the source.

Legend:
[1] = molecular target: FGFR2-WT (Homo sapiens, UniProt P21802); assay: Phosphorylated FGFR2-WT (pFGFR2-WT) cell assay, KATOIII cells; assay type: cell-based; conditions: 1 hour incubation, phospho FGFR2 HTRF
In short: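 KATOIII cells treated 1 h at 37 °C with threefold compound dilutions (10 μM to 0.5 nM). Lysate phospho-FGFR2 (Tyr653/654) read by HTRF.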

[2] = molecular target: T1, FGFR2 (Homo sapiens, UniProt P21802); assay: FGFR wild type enzyme assay (HTRF KinEASE-TK); assay type: biochemical; conditions: ATP 2 uM
T1 construct: biochemical assays using purified intracellular domains of the respective isoforms; purchased Carna Bioscience 08-134
T1 sequence (P21802 399-821 limits assumed): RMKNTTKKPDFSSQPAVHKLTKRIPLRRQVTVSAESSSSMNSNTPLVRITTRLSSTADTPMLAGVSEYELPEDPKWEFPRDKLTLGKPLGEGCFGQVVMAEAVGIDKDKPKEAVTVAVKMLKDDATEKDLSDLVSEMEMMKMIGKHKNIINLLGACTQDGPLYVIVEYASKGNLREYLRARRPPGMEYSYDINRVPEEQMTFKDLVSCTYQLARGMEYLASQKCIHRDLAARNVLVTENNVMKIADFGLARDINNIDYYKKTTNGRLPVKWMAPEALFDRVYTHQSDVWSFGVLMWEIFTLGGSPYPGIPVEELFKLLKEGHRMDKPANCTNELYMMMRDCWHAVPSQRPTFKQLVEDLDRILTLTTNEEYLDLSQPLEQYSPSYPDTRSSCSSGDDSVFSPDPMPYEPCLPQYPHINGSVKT
In short: (§1)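 Purified intracellular kinase domains, enzyme pre-incubated 30 min with compound (11-point 1:3 dilutions, typically 10,000-0.17 nM), then ATP plus 0.5 uM TK-peptide, 60 min at room temperature in HEPES pH7.5 with Mg2+/Mn2+. HTRF 665/615 ratio converted to percent of control; IC50 from four-parameter logistic fit.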

[3] = molecular target: T2, FGFR2 V564F (Homo sapiens, UniProt P21802, V564F); assay: FGFR mutant enzyme assay (HTRF KinEASE-TK); assay type: biochemical; conditions: ATP 1.5 uM
T2 construct: biochemical assays using purified intracellular domains of the respective isoforms; purchased SignalChem Biotech F05-12FG
T2 sequence (P21802 399-821 V564F limits assumed): as the sequence (P21802 399-821 limits assumed) above, with V166F counted along it
In short: as §1

[4] = molecular target: T3, FGFR2 V564I (Homo sapiens, UniProt P21802, V564I); assay: FGFR mutant enzyme assay (HTRF KinEASE-TK); assay type: biochemical; conditions: ATP 0.4 uM
T3 construct: biochemical assays using purified intracellular domains of the respective isoforms; purchased Carna Bioscience 08-546
T3 sequence (P21802 399-821 V564I limits assumed): as the sequence (P21802 399-821 limits assumed) above, with V166I counted along it
In short: as §1

[5] = molecular target: T4, FGFR2 N549H (Homo sapiens, UniProt P21802, N549H); assay: FGFR mutant enzyme assay (HTRF KinEASE-TK); assay type: biochemical; conditions: ATP 0.9 uM
T4 construct: biochemical assays using purified intracellular domains of the respective isoforms; purchased Carna Bioscience 08-532
T4 sequence (P21802 399-821 N549H limits assumed): as the sequence (P21802 399-821 limits assumed) above, with N151H counted along it
In short: as §1

[6] = compound table after the examples, read-out: Enz FGFR2

Sequence of FGFR2-WT (P21802 430-767 limits assumed): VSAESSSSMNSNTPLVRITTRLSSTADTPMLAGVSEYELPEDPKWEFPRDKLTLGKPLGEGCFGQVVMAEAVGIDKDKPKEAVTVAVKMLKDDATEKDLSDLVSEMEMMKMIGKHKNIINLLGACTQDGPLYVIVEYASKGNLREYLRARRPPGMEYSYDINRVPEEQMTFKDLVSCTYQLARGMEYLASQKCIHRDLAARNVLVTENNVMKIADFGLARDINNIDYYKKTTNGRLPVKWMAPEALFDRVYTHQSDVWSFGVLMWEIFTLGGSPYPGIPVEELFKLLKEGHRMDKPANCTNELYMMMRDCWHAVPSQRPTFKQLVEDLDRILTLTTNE

Row | SMILES | IC50 [1] [nM] | IC50 ([2]; Table 3, read-out: FGFR2 Enz) [nM] | IC50 [2, 6] [nM] | IC50 [3] [nM] | IC50 [4] [nM] | IC50 [5] [nM]
1 | Cc1c(-c2cc(O[C@H](C)c3ccc(F)cn3)c3c(C#N)cnn3c2)cnn1[C@H]1CC[C@H](OC(=O)[C@@H](N)C(C)C)CC1 [Compound 53, (1R,4S)-4-(4-(3-cyano-4-((R)-1-(5-fluoropyridin-2-yl)ethoxy)pyrazolo[1,5-a]pyridin-6-yl)-5-methyl-1H-pyrazol-1-yl)cyclohexyl L-valinate] | 3 | 0.3 | 0.3 | 1 | 1.5 | 0.5
2 | Cc1c(-c2cc(O[C@H](C)c3ccc(F)cn3)c3c(C#N)cnn3c2)cnn1[C@@H]1CCC[C@@H](O)C1 [Compound 68, 4-((R)-1-(5-fluoropyridin-2-yl)ethoxy)-6-(1-((1R,3R)-3-hydroxycyclohexyl)-5-methyl-1H-pyrazol-4-yl)pyrazolo[1,5-a]pyridine-3-carbonitrile] | 8 | 1 | 1 | 3 | 4 | 1
3 | C[C@@H](Oc1cc(-c2ccc(N3CCN(C)[C@@H](CO)C3)nc2)cn2ncc(C#N)c12)c1ccc(F)cn1 [Compound 24, 4-((R)-1-(5-fluoropyridin-2-yl)ethoxy)-6-(6-((R)-3-(hydroxymethyl)-4-methylpiperazin-1-yl)pyridin-3-yl)pyrazolo[1,5-a]pyridine-3-carbonitrile] | 3 | 0.3 | 0.3 | 1 | 1 | 0.3
4 | Cc1c(-c2cc(O[C@H](C)c3ccccn3)c3c(C#N)cnn3c2)cnn1C1CCNCC1 [Compound 5, (R)-6-(5-methyl-1-(piperidin-4-yl)-1H-pyrazol-4-yl)-4-(1-(pyridin-2-yl)ethoxy)pyrazolo[1,5-a]pyridine-3-carbonitrile] | 5 | 0.25 | 0.25 | 1 | 1.4 | 0.7
5 | Cc1c(-c2cc(O[C@H](C)c3ccc(F)cn3)c3c(C#N)cnn3c2)cnn1C[C@H](O)CO [Compound 27, 6-(1-((S)-2,3-dihydroxypropyl)-5-methyl-1H-pyrazol-4-yl)-4-((R)-1-(5-fluoropyridin-2-yl)ethoxy)pyrazolo[1,5-a]pyridine-3-carbonitrile] | 23 | 3 | 3 | 11 | 17 | 5
6 | Cc1c(-c2cc(O[C@H](C)c3ccc(F)cn3)c3c(C#N)cnn3c2)cnn1[C@@H]1CCCC[C@H]1O [Compound 62, 4-((R)-1-(5-fluoropyridin-2-yl)ethoxy)-6-(1-((1R,2R)-2-hydroxycyclohexyl)-5-methyl-1H-pyrazol-4-yl)pyrazolo[1,5-a]pyridine-3-carbonitrile] | 48 | 7 | 8 | 21.5 | 30 | 9
7 | CC[C@@H](Oc1cc(-c2cnn([C@H]3CC[C@H](O)CC3)c2C)cn2ncc(C#N)c12)c1ccc(F)cn1 [Compound 60, 4-((R)-1-(5-fluoropyridin-2-yl)propoxy)-6-(1-((1r,4R)-4-hydroxycyclohexyl)-5-methyl-1H-pyrazol-4-yl)pyrazolo[1,5-a]pyridine-3-carbonitrile] | 3.5 | 0.4 | 0.4 | 1.5 | 2 | 0.5
8 | Cc1c(-c2cc(O[C@H](C)c3ccccn3)c3c(C#N)cnn3c2)cnn1C1CCN(C)CC1 [Compound 7, (R)-6-(5-methyl-1-(1-methylpiperidin-4-yl)-1H-pyrazol-4-yl)-4-(1-(pyridin-2-yl)ethoxy)pyrazolo[1,5-a]pyridine-3-carbonitrile] | 6 | 0.3 | 0.3 | 1 | 1 | 0.5
